Patent US12448389B2, “BRM targeting compounds and associated methods of use” (Prelude Therapeutics Incorporated, priority 2020, dated 2025)

Tests used:
SMARCA4-HiBiT = target: T1, SMARCA4-HiBiT (Homo sapiens, UniProt P51532); experiment: SMARCA4 HiBiT degradation assay in HeLa cells; format: cell-based; details: 18 hours incubation; for DC50: read-out: HeLa-HiBit-SM4 DC50; for Dmax: HeLa, read-out: HeLa-HiBit-SM4 Dmax (%)
T1 construct: SMARCA4-HiBiT knock-in Hela monoclonal cell (CS3023226); host or cells: HeLa monoclonal knock-in line (CRISPR HiBiT knock-in at the endogenous locus, heterozygous)
Summary of the method: (§1)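 HeLa monoclonal lines with heterozygous HiBiT knock-in were seeded at 2500 cells/well in EMEM with 10% FBS and treated with compound for 18 h at 37 °C. Remaining tagged protein was measured by Nano-Glo HiBiT lytic luminescence after 30–60 min at RT, and values came from curve fitting.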

SMARCA2-HiBiT = target: T2, SMARCA2-HiBiT (Homo sapiens, UniProt P51531); experiment: SMARCA2 HiBiT degradation assay in HeLa cells; format: cell-based; details: 18 hours incubation; for DC50: read-out: HeLa_HiBit-SM2 DC50; for Dmax: HeLa, read-out: HeLa-HiBit-SM2 Dmax (%)
T2 construct: SMARCA2-HiBiT knock-in Hela monoclonal cell (CS302366); host or cells: HeLa monoclonal knock-in line (CRISPR HiBiT knock-in at the endogenous locus, heterozygous)
Summary of the method: as §1

T2 sequence (P51531 whole entry): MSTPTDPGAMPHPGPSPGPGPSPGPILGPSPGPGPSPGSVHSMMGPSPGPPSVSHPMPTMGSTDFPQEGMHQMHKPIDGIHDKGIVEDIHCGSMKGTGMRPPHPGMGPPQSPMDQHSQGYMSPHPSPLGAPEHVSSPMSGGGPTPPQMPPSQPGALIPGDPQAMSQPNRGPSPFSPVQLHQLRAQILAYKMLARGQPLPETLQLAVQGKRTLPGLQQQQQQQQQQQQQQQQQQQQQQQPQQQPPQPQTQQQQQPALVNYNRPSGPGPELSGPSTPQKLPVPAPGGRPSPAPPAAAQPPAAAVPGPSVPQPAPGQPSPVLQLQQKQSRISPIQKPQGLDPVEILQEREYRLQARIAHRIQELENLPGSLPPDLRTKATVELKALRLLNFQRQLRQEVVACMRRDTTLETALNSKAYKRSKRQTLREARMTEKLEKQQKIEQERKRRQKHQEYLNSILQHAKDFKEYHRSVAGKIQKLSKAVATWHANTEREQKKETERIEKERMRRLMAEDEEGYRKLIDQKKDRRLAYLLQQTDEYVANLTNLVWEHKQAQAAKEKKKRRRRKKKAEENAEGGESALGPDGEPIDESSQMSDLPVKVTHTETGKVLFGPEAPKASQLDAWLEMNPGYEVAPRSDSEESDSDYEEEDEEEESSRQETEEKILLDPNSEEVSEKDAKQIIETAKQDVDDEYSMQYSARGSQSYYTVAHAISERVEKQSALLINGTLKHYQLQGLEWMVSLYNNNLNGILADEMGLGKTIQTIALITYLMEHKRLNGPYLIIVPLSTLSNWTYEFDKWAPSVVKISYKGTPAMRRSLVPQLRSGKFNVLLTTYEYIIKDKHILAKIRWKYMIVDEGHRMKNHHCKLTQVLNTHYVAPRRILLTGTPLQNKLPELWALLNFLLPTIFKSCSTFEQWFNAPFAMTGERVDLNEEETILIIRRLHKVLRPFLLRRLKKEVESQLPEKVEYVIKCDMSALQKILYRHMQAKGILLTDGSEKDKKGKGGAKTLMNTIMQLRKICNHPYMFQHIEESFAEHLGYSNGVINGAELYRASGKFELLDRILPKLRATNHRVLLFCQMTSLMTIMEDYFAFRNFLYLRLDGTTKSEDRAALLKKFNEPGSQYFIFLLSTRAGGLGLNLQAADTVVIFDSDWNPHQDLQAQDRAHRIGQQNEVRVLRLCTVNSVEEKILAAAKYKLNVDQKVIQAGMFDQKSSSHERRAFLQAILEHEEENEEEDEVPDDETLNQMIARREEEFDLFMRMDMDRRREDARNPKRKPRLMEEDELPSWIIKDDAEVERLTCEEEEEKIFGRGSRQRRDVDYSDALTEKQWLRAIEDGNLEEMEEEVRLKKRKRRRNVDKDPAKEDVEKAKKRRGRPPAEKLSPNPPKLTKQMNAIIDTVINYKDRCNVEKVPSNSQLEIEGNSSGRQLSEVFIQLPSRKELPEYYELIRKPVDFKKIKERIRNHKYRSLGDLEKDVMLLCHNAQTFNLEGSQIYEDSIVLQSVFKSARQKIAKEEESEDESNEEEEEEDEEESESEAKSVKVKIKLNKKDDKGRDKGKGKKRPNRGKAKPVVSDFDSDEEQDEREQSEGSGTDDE
T1 sequence (P51532 whole entry): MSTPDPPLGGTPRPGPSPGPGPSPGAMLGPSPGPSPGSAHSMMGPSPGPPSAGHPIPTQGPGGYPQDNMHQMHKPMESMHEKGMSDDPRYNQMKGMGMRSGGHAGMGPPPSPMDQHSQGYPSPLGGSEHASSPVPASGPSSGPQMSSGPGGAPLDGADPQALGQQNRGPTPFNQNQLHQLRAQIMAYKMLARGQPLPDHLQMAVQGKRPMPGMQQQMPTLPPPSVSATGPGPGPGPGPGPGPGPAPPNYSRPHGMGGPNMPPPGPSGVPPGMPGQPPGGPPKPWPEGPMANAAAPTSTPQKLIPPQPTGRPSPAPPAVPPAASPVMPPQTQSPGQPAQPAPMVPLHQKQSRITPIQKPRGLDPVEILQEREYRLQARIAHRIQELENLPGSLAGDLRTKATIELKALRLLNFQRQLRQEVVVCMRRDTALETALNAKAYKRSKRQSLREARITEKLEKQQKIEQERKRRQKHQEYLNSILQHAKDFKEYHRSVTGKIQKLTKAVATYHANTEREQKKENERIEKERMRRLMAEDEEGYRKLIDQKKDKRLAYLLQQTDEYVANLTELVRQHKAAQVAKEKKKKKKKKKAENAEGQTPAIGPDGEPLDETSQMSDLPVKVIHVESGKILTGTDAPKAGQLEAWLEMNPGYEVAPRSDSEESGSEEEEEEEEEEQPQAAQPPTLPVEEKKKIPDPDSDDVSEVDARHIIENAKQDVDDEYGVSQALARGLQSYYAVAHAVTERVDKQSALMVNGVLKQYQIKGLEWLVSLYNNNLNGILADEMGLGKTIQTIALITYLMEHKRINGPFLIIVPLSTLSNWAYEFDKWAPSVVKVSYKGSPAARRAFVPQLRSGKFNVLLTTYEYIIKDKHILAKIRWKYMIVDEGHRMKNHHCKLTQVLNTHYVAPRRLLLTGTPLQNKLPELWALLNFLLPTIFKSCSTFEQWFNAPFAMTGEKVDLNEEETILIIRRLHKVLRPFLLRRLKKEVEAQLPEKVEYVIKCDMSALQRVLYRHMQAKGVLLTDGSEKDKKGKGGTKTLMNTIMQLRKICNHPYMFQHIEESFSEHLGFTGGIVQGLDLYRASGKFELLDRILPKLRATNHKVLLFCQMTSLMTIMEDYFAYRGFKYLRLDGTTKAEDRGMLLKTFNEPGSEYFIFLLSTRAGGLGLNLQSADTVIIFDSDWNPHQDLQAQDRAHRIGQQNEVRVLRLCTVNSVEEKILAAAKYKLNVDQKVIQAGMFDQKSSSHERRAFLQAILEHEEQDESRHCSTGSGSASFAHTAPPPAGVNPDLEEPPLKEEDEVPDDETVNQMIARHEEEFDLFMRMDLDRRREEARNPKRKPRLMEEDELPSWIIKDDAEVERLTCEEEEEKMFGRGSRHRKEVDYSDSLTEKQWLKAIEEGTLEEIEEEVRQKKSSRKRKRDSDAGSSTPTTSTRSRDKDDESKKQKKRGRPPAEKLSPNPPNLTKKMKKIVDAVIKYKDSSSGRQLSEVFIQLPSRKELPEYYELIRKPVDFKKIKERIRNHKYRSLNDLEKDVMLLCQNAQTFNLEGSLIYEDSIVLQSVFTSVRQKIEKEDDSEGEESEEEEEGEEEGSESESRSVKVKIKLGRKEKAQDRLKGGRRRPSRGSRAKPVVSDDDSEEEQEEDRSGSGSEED

| SMILES | DC50 (SMARCA4-HiBiT) | Dmax (SMARCA4-HiBiT) | DC50 (SMARCA2-HiBiT) | Dmax (SMARCA2-HiBiT) | HeLa-HiBit-SM4 Dmax (%) (SMARCA4-HiBiT) |
| --- | --- | --- | --- | --- | --- |
| O=C1CCC(N2Cc3ccc(N4CCC(CN5CC6(C5)CN(C(=O)N5CCN7c8cc(-c9ccccc9O)nnc8NC[C@H]7C5)C6)CC4)cc3C2=O)C(=O)N1 (stereo partly drawn) [Example 101, 3-(6-(4-((6-((S)-2-(2-hydroxyphenyl)-6,6a,7,8,9,10-hexahydro-5H-pyrazino[1′,2′:4,5]pyrazino[2,3-c]pyridazine-8-carbonyl)-2,6-diazaspiro[3.3]heptan-2-yl)methyl)piperidin-1-yl)-1-oxoisoindolin-2-yl)piperidine-2,6-dione] | 0.01 to 0.1 µM | 75 to 85% | < 0.01 µM | 75 to 85% |  |
| O=C1CCC(N2Cc3ccc(C4CCN(CC5CCN(C(=O)N6CCN7c8cc(-c9ccccc9O)nnc8NC[C@H]7C6)CC5)CC4)cc3C2=O)C(=O)N1 (stereo partly drawn) [Example 143, 3-(6-(1-((1-((S)-2-(2-hydroxyphenyl)-6,6a,7,8,9,10-hexahydro-5H-pyrazino[1′,2′:4,5]pyrazino[2,3-c]pyridazine-8-carbonyl)piperidin-4-yl)methyl)piperidin-4-yl)-1-oxoisoindolin-2-yl) piperidine-2,6-dione] | 0.01 to 0.1 µM | 75 to 85% | < 0.01 µM | > 85% |  |
| O=C1CCC(N2C(=O)c3ccc(N4CCC(CN5CCN6c7cc(-c8ccccc8O)nnc7NC[C@H]6C5)CC4)cc3C2=O)C(=O)N1 (stereo partly drawn) [Example 157, 2-(2,6-dioxopiperidin-3-yl)-5-(4-(((S)-2-(2-hydroxyphenyl)-5,6,6a,7,9,10-hexahydro-8H-pyrazino[1′,2′:4,5]pyrazino[2,3-c]pyridazin-8-yl)methyl)piperidin-1-yl)isoindoline-1,3-dione] | 0.01 to 0.1 µM | 50 to 75% | < 0.01 µM | 75 to 85% |  |
| O=C1CCC(N2C(=O)c3ccc(N4CCO[C@@H](CN5C[C@@H]6[C@H](C5)[C@H]6CN5CCN6c7cc(-c8ccccc8O)nnc7NC[C@H]6C5)C4)cc3C2=O)C(=O)N1 (stereo partly drawn) [Example 51, 2-(2,6-dioxopiperidin-3-yl)-5-((S)-2-(((1R,5S,6R)-6-(((S)-2-(2-hydroxyphenyl)-5,6,6a,7,9,10-hexahydro-8H-pyrazino[1′,2′:4,5]pyrazino[2,3-c]pyridazin-8-yl)methyl)-3-azabicyclo[3.1.0]hexan-3-yl)methyl)morpholino)isoindoline-1,3-dione] | < 0.01 µM | 50 to 75% | < 0.01 µM | > 85% |  |
| O=C1CCC(N2C(=O)c3ccc(N4CC(CN5C[C@@H]6[C@H](C5)[C@H]6CN5CCN6c7cc(-c8ccccc8O)nnc7NC[C@H]6C5)C4)cc3C2=O)C(=O)N1 (stereo partly drawn) [Example 109, 2-(2,6-dioxopiperidin-3-yl)-5-(3-(((1R,5S,6r)-6-(((S)-2-(2-hydroxyphenyl)-5,6,6a,7,9,10-hexahydro-8H-pyrazino[1′,2′:4,5]pyrazino[2,3-c]pyridazin-8-yl)methyl)-3-azabicyclo[3.1.0]hexan-3-yl)methyl)azetidin-1-yl)isoindoline-1,3-dione] | < 0.01 µM | > 85% | < 0.01 µM | > 85% |  |
| O=C1CCC(N2Cc3cc(CN4CCC(N5CCC(N6CCN7c8cc(-c9ccccc9O)nnc8NC[C@H]7C6)CC5)CC4)ccc3C2=O)C(=O)N1 (stereo partly drawn) [Example 63, 3-(5-((4-((S)-2-(2-hydroxyphenyl)-5,6,6a,7,9,10-hexahydro-8H-pyrazino[1′,2′:4,5]pyrazino[2,3-c]pyridazin-8-yl)-[1,4′-bipiperidin]-1′-yl)methyl)-1-oxoisoindolin-2-yl)piperidine-2,6-dione] | < 0.01 µM | > 85% | < 0.01 µM | > 85% |  |
| CC1(C)CN(c2ccc3c(c2)C(=O)N(C2CCC(=O)NC2=O)C3=O)CCC1CN1CCC(CN2CCN3c4cc(-c5ccccc5O)nnc4NC[C@H]3C2)CC1 (stereo partly drawn) [Example 88, 2-(2,6-dioxopiperidin-3-yl)-5-(4-((4-(((S)-2-(2-hydroxyphenyl)-5,6,6a,7,9,10-hexahydro-8H-pyrazino[1′,2′:4,5]pyrazino[2,3-c]pyridazin-8-yl)methyl)piperidin-1-yl)methyl)-3,3-dimethylpiperidin-1-yl)isoindoline-1,3-dione] | < 0.01 µM | > 85% | < 0.01 µM | > 85% |  |
| O=C1CCC(N2C(=O)c3ccc(N4CCC(CN5CCCC(CN6CCN7c8cc(-c9ccccc9O)nnc8NC[C@H]7C6)C5)CC4)cc3C2=O)C(=O)N1 (stereo partly drawn) [Example 35, 2-(2,6-dioxopiperidin-3-yl)-5-(4-((3-(((S)-2-(2-hydroxyphenyl)-5,6,6a,7,9,10-hexahydro-8H-pyrazino[1′,2′:4,5]pyrazino[2,3-c]pyridazin-8-yl)methyl)piperidin-1-yl)methyl)piperidin-1-yl)isoindoline-1,3-dione] | < 0.01 µM | 50 to 75% | < 0.01 µM | 75 to 85% |  |

Results, then the molecule that gave them:

| DC50 (SMARCA4-HiBiT) | Dmax (SMARCA4-HiBiT) | DC50 (SMARCA2-HiBiT) | Dmax (SMARCA2-HiBiT) | HeLa-HiBit-SM4 Dmax (%) (SMARCA4-HiBiT) | SMILES |
| --- | --- | --- | --- | --- | --- |
| 0.01 to 0.1 µM | 50 to 75% | < 0.01 µM | 50 to 75% |  | O=C1CCC(N2C(=O)c3ccc(N4CCC(CN5CCN(C(=O)N6CCN7c8cc(-c9ccccc9O)nnc8NC[C@H]7C6)CC5)C(F)(F)C4)cc3C2=O)C(=O)N1 (stereo partly drawn) [Example 195, 5-[3,3-difluoro-4-[[4-[(10S)-4-(2-hydroxyphenyl)-1,5,6,8,12-pentazatricyclo[8.4.0.02,7]tetradeca-2(7),3,5-trien-12-carbonyl]piperazin-1-yl]methyl]piperidin-1-yl]-2-(2,6-dioxopiperidin-3-yl) isoindole-1,3-dione] |
| < 0.01 µM | 75 to 85% | < 0.01 µM | 75 to 85% |  | O=C1CCC(N2C(=O)c3ccc(N4CCC(CCN5CCC(CN6CCN7c8cc(-c9ccccc9O)nnc8NC[C@H]7C6)CC5)CC4)cc3C2=O)C(=O)N1 (stereo partly drawn) [Example 224, 2-(2,6-dioxopiperidin-3-yl)-5-(4-(2-(4-(((S)-2-(2-hydroxyphenyl)-5,6,6a,7,9,10-hexahydro-8H-pyrazino[1′,2′:4,5]pyrazino[2,3-c]pyridazin-8-yl)methyl)piperidin-1-yl)ethyl)piperidin-1-yl)isoindoline-1,3-dione] |
| < 0.01 µM | > 85% | < 0.01 µM | > 85% |  | O=C1CCC(N2C(=O)c3ccc(N4CCC(CNC5CCC(CN6CCN7c8cc(-c9ccccc9O)nnc8NC[C@H]7C6)CC5)CC4)cc3C2=O)C(=O)N1 (stereo partly drawn) [Example 167, 2-(2,6-dioxopiperidin-3-yl)-5-[4-[[[4-[[(10S)-4-(2-hydroxyphenyl)-1,5,6,8,12-pentazatricyclo[8.4.0.02,7]tetradeca-2,4,6-trien-12-yl]methyl]cyclohexyl]amino]methyl]piperidin-1-yl] isoindole-1,3-dione] |
| 0.01 to 0.1 µM | 50 to 75% | < 0.01 µM | 75 to 85% |  | CCC1CN(CC2CCN(c3ccc4c(c3)C(=O)N(C3CCC(=O)NC3=O)C4=O)CC2)CCN1C(=O)N1CCN2c3cc(-c4ccccc4O)nnc3NC[C@H]2C1 (stereo partly drawn) [Example 269, 2-(2,6-dioxopiperidin-3-yl)-5-(4-((3-ethyl-4-((S)-2-(2-hydroxyphenyl)-6,6a,7,8,9,10-hexahydro-5H-pyrazino[1′,2′:4,5]pyrazino[2,3-c]pyridazine-8-carbonyl)piperazin-1-yl)methyl)piperidin-1-yl)isoindoline-1,3-dione] |
| < 0.01 µM | > 85% | < 0.01 µM | > 85% |  | O=C1CCC(N2C(=O)c3ccc(N4CCC(NC5CCC(CN6CCN7c8cc(-c9ccccc9O)nnc8NC[C@H]7C6)CC5)CC4)cc3C2=O)C(=O)N1 (stereo partly drawn) [Example 163, 2-(2,6-dioxopiperidin-3-yl)-5-[4-[[4-[[(10S)-4-(2-hydroxyphenyl)-1,5,6,8,12-pentazatricyclo[8.4.0.02,7]tetradeca-2,4,6-trien-12-yl]methyl]cyclohexyl]amino]piperidin-1-yl]isoindole-1,3-dione] |
| < 0.01 µM |  | < 0.01 µM | > 85% | B (B=75%<Dmax<=85%) | CC1CN(c2ccc3c(c2)C(=O)N(C2CCC(=O)NC2=O)C3=O)CCC1CN1C[C@@H]2[C@H](C1)[C@H]2CN1CCN2c3cc(-c4ccccc4O)nnc3NC[C@H]2C1 (stereo partly drawn) [Example 197, 2-(2,6-dioxopiperidin-3-yl)-5-(4-(((1R,5S,6r)-6-(((S)-2-(2-hydroxyphenyl)-5,6,6a,7,9,10-hexahydro-8H-pyrazino[1′,2′:4,5]pyrazino[2,3-c]pyridazin-8-yl)methyl)-3-azabicyclo[3.1.0]hexan-3-yl)methyl)-3-methylpiperidin-1-yl)isoindoline-1,3-dione] |
| 0.01 to 0.1 µM | ≤ 50% | < 0.01 µM | 75 to 85% |  | O=C1CCC(N2C(=O)c3ccc(N4CC[C@H](CN5C[C@@H]6[C@H](C5)[C@H]6CN5CCN6c7cc(-c8c(O)cccc8F)nnc7NC[C@H]6C5)[C@@H](F)C4)cc3C2=O)C(=O)N1 (stereo partly drawn) [Example 281, 2-(2,6-dioxopiperidin-3-yl)-5-((3R,4R)-3-fluoro-4-(((1R,5S,6R)-6-(((S)-2-(2-fluoro-6-hydroxyphenyl)-5,6,6a,7,9,10-hexahydro-8H-pyrazino[1′,2′:4,5]pyrazino[2,3-c]pyridazin-8-yl)methyl)-3-azabicyclo[3.1.0]hexan-3-yl)methyl)piperidin-1-yl) isoindoline-1,3-dione] |
| < 0.01 µM | 75 to 85% | < 0.01 µM | > 85% |  | CC1(CN2CCC(CN3CCN4c5cc(-c6ccccc6O)nnc5NC[C@H]4C3)CC2)CCN(c2ccc3c(c2)C(=O)N(C2CCC(=O)NC2=O)C3=O)CC1 (stereo partly drawn) [Example 226, 2-(2,6-dioxopiperidin-3-yl)-5-(4-((4-(((S)-2-(2-hydroxyphenyl)-5,6,6a,7,9,10-hexahydro-8H-pyrazino[1′,2′:4,5]pyrazino[2,3-c]pyridazin-8-yl)methyl)piperidin-1-yl)methyl)-4-methylpiperidin-1-yl)isoindoline-1,3-dione] |
